Consider three compounds from publication PMC11615292, “Fast-diffusing receptor collisions with slow-diffusing peptide ligand assemble the ternary parathyroid hormone–GPCR–arrestin complex” (Nature Communications, 2024).

Assay [1] deals with PTH type 1 receptor C-terminally fused to monomeric NeonGreen (PTH1R^mNG) (human) (UniProt Q03431).
A further assay has as its target T1, βarr2L69C-BIM (Homo sapiens, UniProt P32121, C126S/C141L/C151V/C17S/C243V/C252V/C270S/C409S/C60V/L69C).
T1 construct: gene ARRB2; Cys-less full-length βarr2 with L69C in finger loop, labelled with monobromobimane at C69; E. coli NiCo21(DE3), pET-15b; N-terminal 6xHis-3C removed by 3C protease, GG-AviTag-GGSGGS linker kept
The experiment in a line: bimane fluorescence titration, single-site fit. It is filed as binding. The text has this:
bimane fluorescence titration, single-site fit on βarr2L69C-BIM | PIP3 binds βarr2 with higher affinity than PIP2 and induces a conformational change | Like PIP2 and V2Rpp, PIP3 induced a concentration-dependent increase in bimane fluorescence

T1 sequence (P32121 whole entry C17S/C60V/L69C/C126S/C141L/C151V/C243V/C252V/C270S/C409S): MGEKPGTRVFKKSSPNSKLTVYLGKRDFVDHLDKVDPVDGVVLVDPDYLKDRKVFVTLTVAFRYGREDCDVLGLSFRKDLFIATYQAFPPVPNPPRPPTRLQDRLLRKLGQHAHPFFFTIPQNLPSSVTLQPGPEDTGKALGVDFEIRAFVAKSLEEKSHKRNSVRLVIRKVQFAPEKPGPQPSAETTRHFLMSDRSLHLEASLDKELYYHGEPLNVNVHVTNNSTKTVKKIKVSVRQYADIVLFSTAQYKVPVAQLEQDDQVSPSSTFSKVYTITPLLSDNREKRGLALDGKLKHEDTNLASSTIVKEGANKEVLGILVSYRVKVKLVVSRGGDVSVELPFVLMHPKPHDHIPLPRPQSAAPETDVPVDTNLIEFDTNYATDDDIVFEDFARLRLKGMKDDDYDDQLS
Chain of PTH type 1 receptor C-terminally fused to monomeric NeonGreen (PTH1R^mNG) (human) (Q03431 27-593): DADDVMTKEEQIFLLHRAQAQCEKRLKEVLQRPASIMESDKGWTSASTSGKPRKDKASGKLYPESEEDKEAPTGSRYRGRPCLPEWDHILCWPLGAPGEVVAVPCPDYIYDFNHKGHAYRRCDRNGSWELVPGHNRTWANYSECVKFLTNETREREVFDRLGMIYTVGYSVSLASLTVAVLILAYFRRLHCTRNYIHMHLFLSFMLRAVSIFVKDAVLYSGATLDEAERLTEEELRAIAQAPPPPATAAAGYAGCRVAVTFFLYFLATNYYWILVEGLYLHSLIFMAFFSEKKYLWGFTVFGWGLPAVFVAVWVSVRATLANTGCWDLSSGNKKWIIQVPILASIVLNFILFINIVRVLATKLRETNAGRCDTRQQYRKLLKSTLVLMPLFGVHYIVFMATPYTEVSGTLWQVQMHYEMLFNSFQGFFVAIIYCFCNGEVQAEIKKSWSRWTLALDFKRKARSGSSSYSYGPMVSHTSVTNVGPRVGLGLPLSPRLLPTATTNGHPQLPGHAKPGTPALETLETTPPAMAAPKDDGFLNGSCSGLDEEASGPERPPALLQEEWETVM

Turning to “PTH(1-34) labeled in position 13 with tetramethylrhodamine (PTH^TMR) (peptide)”, the average diffusion coefficient (D) of PTH1R^mNG molecules in the presence of PTH^TMR (0.088 µm^2/s in the absence of the ligand), single-molecule tracking in assay [1] is 0.02 µm^2/s. By Kd is commonly meant the equilibrium constant for the complex coming apart. On βarr2L69C-BIM, `CCCCCCCC(=O)OC[C@H](COP(=O)(O)O[C@H]1[C@H](O)[C@@H](OP(=O)(O)O)[C@H](OP(=O)(O)O)[C@@H](OP(=O)(O)O)[C@H]1O)OC(=O)CCCCCCC` [diC8-PI(3,4,5)P3] registered a Kd of 15.5 ± 2.6 µM.

Turning to `CCCCCCCC(=O)OC[C@H](COP(=O)(O)O[C@@H]1[C@H](O)[C@H](O)[C@@H](OP(=O)(O)O)[C@H](OP(=O)(O)O)[C@H]1O)OC(=O)CCCCCCC` [di-C8-PI(4,5)P2], at βarr2L69C-BIM, the equilibrium dissociation constant (Kd) amounted to 64.8 ± 16.8 µM.
